Several values for one entry are separate records, joined by “and”; a condition that tells them apart may be missing. Equal values may be shown once.
Legend:
[1] = Aqueous solubility in Mill-Q H2O; settings: water, thermodynamic from solid
Experimental: Chromatographic separations were obtained using a Phenomenex Kinetex C18-100 Å column (150 × 4.6 mm) with 5 µm particle size and gradient elution with a binary solution; (eluent A: H2O acidified with formic acid (FA) 0.1% v/v, eluent B: ACN/MeOH 1:1 v/v) at room temperature. The analysis started with 5% of B (from t = 0 to t = 1 min), then B was increased to 95% (from t = 1 to t = 10 min), then kept at 95% (from t = 10 to t = 15 min) and finally returned to 5% of eluent A in one minute. The instrument worked in positive mode and the UV detector operated at 254 nm.
One mg of each compound was added with 1 mL of Mill-Q H2O. The samples were maintained under shaking at room temperature (RT) overnight. The suspensions were filtered using a 0.45 µm nylon filter (Acrodisc), and the amount of solubilized compound was determined with the HPLC-UV-MS method above reported. The quantification of the solubilized compound was created with the appropriate calibration curve realized with stock solutions in DMSO (0.1–100 µg/mL); the limit of detection (LOD) was quantified at 0.1 µg/mL.

human helicase DDX3X = human helicase DDX3X (Homo sapiens, UniProt O00571); assay: DDX3X ATPase inhibition, ADP-Glo assay; type: biochemical
Experimental: For the more promising compound, derivative 10a, the inhibition of the ATPase activity of the human helicase DDX3X was evaluated. Different concentrations of the compound were incubated with 1 µM of purified recombinant DDX3X and ATPase activity was determined with the ADP-glo assay.
The ATPase enzymatic activity of DDX3X was determined by the ADP-Glo kit (Promega, MD, USA). The reaction was performed in ATPase buffer (20 mM Tris–HCl pH 8, 2 mM DTT, 70 mM KCl, 2 mM MgCl2, 5% DMSO) pre-incubating 1 µM DDX3X with different concentrations of inhibitor for 10 min at 25 °C. ATPase reaction started with the addition of 1 mM ATP. After 30 min of incubation at 25 °C, the assay was conducted following the manufacturer’s instructions. The ATPase enzymatic activity was analyzed using a 384-wells plate and the GloMax Discover Microplate Reader (Promega, MD, USA) and expressed as a percentage of inhibition calculated from the light units obtained.

[2] = Parallel artificial membrane permeability assay (PAMPA); type: in vitro ADME; settings: pH 7.4, 5 h; for Papp at 5 h, 0.5 mM: room temperature, read-out: Apparent Permeability (Papp)
Experimental: The trend appreciated in terms of solubility was confirmed by results obtained from permeability studies. In fact, parallel artificial membrane permeability assay (PAMPA) underlined how the low solubility of compounds 6 and 7 was accompanied by a major tendency of these derivatives to interact with the lipidic artificial membrane where they probably remained entrapped.
In order to assess the apparent permeability of selected compounds, a stock solution in DMSO of each derivative was prepared at the final concentration of 1 mM. By diluting the stocks 1:1 v/v with phosphate buffer (PBS 25 mM, pH 7.4), donor solutions were made. To mimic the gastrointestinal (GI) phospholipidic bilayer, 10 µL of a 1% w/v dodecane solution of phosphatidylcholine (PC) was used to coat filters. The acceptor solution, made of 1:1 v/v DMSO/PBS, was added to each well (300 µL), while the donor solution (150 µL) was added to each well of the filter plate. The sandwich plates were assembled and incubated for 5 h at room temperature. At the time point, the plates were separated, and the amount of compound passed through the phospholipid bilayer was measured by UV/LC-MS. Finally, apparent permeability (Papp) and membrane retention (MR%) were calculated as previously reported by us.

Human plasma stability = type: in vitro ADME; settings: 100 µM
Experimental: Finally, further studies were performed in order to investigate the stability in the presence of human plasma. All compounds were incubated at the fixed concentration of 100 µM in plasma for 24 h.
A DMSO stock solution of each compound was incubated in triplicate in the presence of human plasma and HEPES buffer (25 mM, 140 mM NaCl, pH 7.4) at the final concentration of 100 µM at 37 °C under shaking. At the selected time point of 0 and 24 h, 50 µL of the mixture was collected, treated with 1.0 mL of cold ACN, and centrifuged at 5000 rpm for 10 min. The supernatant was collected, and the amount of unmodified compound was quantified with the HLPC-UV/MS method above reported. Calculations of modified compounds were made using time zero as 100% of the unmodified compound.

SARS-CoV-2 = assay: microbe, parasite or virus in culture; type: cell-based; settings: for SI, Selectivity Index (ratio between CC50 and IC50): Caco-2 cells, SARS-CoV-2; for IC50: Severe acute respiratory syndrome coronavirus 2, Caco-2, 72 h, read-out: IC50, half-maximal compound concentration inhibiting 50% of the SARS-CoV-2 replication
in vitro [3] = settings: human
[4] = system: HIV-1 wild-type reference strain NL4-3; assay: Anti-HIV-1 BiCycle Assay (H9 cells, then TZM-bl reporter cells); type: cell-based; settings: Human immunodeficiency virus 1, NL43, H9, read-out: IC50, half-maximal compound concentration inhibiting the 50% of HIV-1 replication
in vitro [5] = settings: human; remark: listed apart in the source
HIV = system: HIV; parameters: method as in PMID 21698775; settings: PBMC; read-out: EC50, antiretroviral effect; cited from earlier work
[6] = system: peripheral blood mononuclear cells (PBMC); parameters: method as in PMID 21698775; settings: read-out: CC50, cytotoxicity; cited from earlier work

human helicase DDX3X, sequence (O00571 whole entry): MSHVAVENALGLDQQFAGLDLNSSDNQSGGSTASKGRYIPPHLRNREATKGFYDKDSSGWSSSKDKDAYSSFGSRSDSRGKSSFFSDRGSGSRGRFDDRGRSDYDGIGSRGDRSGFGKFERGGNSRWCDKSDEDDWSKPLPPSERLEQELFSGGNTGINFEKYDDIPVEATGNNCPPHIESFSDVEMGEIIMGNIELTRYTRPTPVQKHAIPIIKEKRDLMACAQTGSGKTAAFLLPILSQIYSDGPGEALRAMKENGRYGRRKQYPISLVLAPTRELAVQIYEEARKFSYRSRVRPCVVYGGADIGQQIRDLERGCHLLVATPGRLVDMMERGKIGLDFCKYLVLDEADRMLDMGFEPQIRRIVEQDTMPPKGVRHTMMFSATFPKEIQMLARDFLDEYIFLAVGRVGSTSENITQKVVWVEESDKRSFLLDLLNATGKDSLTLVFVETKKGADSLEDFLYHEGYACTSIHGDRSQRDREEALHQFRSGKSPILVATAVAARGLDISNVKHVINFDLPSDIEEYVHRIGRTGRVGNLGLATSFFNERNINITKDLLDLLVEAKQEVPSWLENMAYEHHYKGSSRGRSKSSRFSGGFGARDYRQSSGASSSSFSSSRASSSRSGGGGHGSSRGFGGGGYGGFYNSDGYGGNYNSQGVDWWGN

SMILES | solubility [1] | IC50 (human helicase DDX3X) | Membrane retention (MR) [2] | Papp at 5 h, 0.5 mM [2] | Plasma Stability % ± SD (Human plasma stability; 24 h, 37 °C) | Plasma Stability % ± SD (Human plasma stability; time 0 h (set as 100%)) | SI, Selectivity Index (ratio between CC50 and IC50) (SARS-CoV-2) | IC50 (SARS-CoV-2) | CC50 (in vitro [3]) | IC50 [4] | CC50 (in vitro [5]) | EC50 (HIV) | CC50 [6]
Oc1ccccc1/C=N/Nc1nc(N2CCOCC2)nc(N2CCOCC2)n1 [10a] | 3.23 µg/mL and 8.51 µM | 6.6 µM | 4.3% | 7.89 ×10⁻⁶ cm/s | 98.48 ± 4.02% | 100.00 ± 0.28% | >33.1 | 12.1 µM |  |  |  |  | 
CC(=O)Nc1ccc(/C=N/Nc2nc(N3CCOCC3)nc(N3CCOCC3)n2)cc1 [10b] | 3.46 µg/mL and 8.13 µM |  | 9.8% | 9.7 ×10⁻⁶ cm/s | 98.41 ± 4.69% | 100.00 ± 0.24% |  |  |  |  |  |  | 
Cc1cccc(/C=N/Nc2nc(N3CCOCC3)nc(N3CCOCC3)n2)c1 [10c] | 4.5 µg/mL and 11.7 µM |  | 4.9% | 9.78 ×10⁻⁶ cm/s | 99.52 ± 3.45% | 100.00 ± 0.16% |  |  | 74 µM |  |  |  | 
Cc1nnc(C(=O)NC(C)(C)c2nc(C(=O)NCc3ccc(F)cc3)c(O)c(=O)n2C)o1 [Raltegravir, reference compound] |  |  |  |  |  |  |  |  | > 100 µM | 0.0028 ± 0.0017 µM |  |  | 
CCC(CC)COC(=O)[C@H](C)N[P@](=O)(OC[C@H]1O[C@@](C#N)(c2ccc3c(N)ncnn23)[C@H](O)[C@@H]1O)Oc1ccccc1 [Remdesivir, reference compound] |  |  |  |  |  |  | 1356 | 0.07 ± 0.04 µM |  |  | 94.9 µM |  | 
Oc1ccccc1C=NNc1nc(Nc2ccc(F)cc2)nc(N2CCOCC2)n1 [compound 6] | < 0.1 µg/mL |  | 28.7% | 4.74 ×10⁻⁶ cm/s | 98.78 ± 4.05% | 100.00 ± 0.19% |  |  |  |  | 3 µM | 2.5 µM | 10 µM
Oc1ccccc1C=NNc1nc(Nc2ccc(F)cc2)nc(Nc2ccc(F)cc2)n1 [compound 7] | < 0.1 µg/mL |  | 15.5% | 4.58 ×10⁻⁶ cm/s | 99.56 ± 3.78% | 100.00 ± 0.28% |  |  |  |  | 0.8 µM | 2 µM | 8 µM
